This passage reports IC50 results from PubChem BioAssay AID1981 (Southern Research Specialized Biocontainment Screening …, 2009).

Where “and” joins values, the source holds several entries; their conditions need not be identical. Identical values can stand only once.

The assay has as its system S. Typhimurium PhoP-promoter GFP reporter counterscreen, fluorescence, 4 h. The assay is described as follows: S. Typhimurium GFP fluorescence modified counterscreen for PhoP regulon inhibitor project dose response (AID 1981).
By IC50 is commonly meant the concentration needed to halve the response being measured. In the case of `COC(=O)C(C)NC(=S)N1CCN(c2c(F)cc3c(=O)c(C(=O)O)cn(C4CC4)c3c2OC)CC1C` (stereo not given), the IC50 is 60.6 µM.
For the compound `CC[C@H]1OC(=O)C[C@@H](O)[C@H](C)[C@@H](O[C@@H]2O[C@H](C)C[C@H](N(C)C)[C@H]2O)[C@@H](CC=O)C[C@@H](C)C(=O)C=C[C@]2(C)O[C@H]2[C@@H]1C`, the half-inhibitory concentration (IC50) was 10.2 µM.
With `COc1ccc(OCc2n(CC(=O)OC3CC(C)CCC3C(C)C)c3ccccc3[n+]2C)cc1` (stereo not given) the figure was 113 µM; with `O=C(N/N=C\c1cccc([N+](=O)[O-])c1O)C1COc2ccccc2O1` (stereo not given), 96 µM; with `Cc1ccc(Nc2nc(N)c3ccccc3n2)cc1Cl`, 74.4 µM.
For `CC(C)(C)CC(C)(C)c1ccc(OCCOCC[N+](C)(C)Cc2ccccc2)cc1`, the IC50 is 47.1 µM.
With `Cc1ccc(C(=O)N/N=C/c2cc(Br)ccc2O)cn1` the figure was 68.4 µM; with `COc1ccc(C(C[N+](=O)[O-])c2c(-c3ccccc3)cc3ccccn23)cc1` (stereo not given), 56.9 µM.
In the case of `FC(F)(F)c1ccc2c(c1)N(CCCN1CCN(CCCl)CC1)c1ccccc1S2`, the IC50 is 146 µM.
Consider `CC(Cc1ccccc1)NCc1ccccc1O` (stereo not given), for which the IC50 was 63.8 µM.
For the compound `Oc1ccc(CNc2ccccc2F)c2cccnc12`, the IC50 is 76.5 µM.
Turning to `Nc1ncncc1-c1ccc([N+](=O)[O-])cc1`, the IC50 is 136 µM.
Regarding `O=C(Nc1cccc(N=Cc2cc(Br)cc(Br)c2O)c1)c1ccco1`, the IC50 is 119 µM.
For the compound `OCCN1CCN(Cc2cc(Cl)c3cccnc3c2O)CC1`, the concentration for half-maximal inhibition (IC50) is 104 µM.
As for `CCC(C)(C)c1ccc(OCCCC[n+]2ccc(C)cc2)c(C(C)(C)CC)c1`, the half-inhibitory concentration (IC50) is 83.2 µM.
For the compound `CC[C@H]1OC(=O)[C@H](C)[C@@H](O[C@H]2C[C@@](C)(OC)[C@@H](O)[C@H](C)O2)[C@H](C)[C@@H](O[C@@H]2O[C@H](C)C[C@H](N(C)C)[C@H]2O)[C@](C)(O)C[C@@H](C)CN(C)[C@H](C)[C@@H](O)[C@]1(C)O`, the IC50 is 3.63 µM.
On to `O=C(NC1CCCC1)c1ccc(Cl)s1`, for which the IC50 was 86.3 µM.
Take `O=C1NN(c2ccccc2)C(=O)/C1=C\c1coc2ccc(O)cc2c1=O`: the half-maximal inhibitory concentration (IC50) was 81.9 µM.
Turning to `CCn1cc(C(=O)O)c(=O)c2cc(F)c(N3CCN(C(=S)NC(=O)c4cccc(F)c4)CC3)cc21`, the IC50 is 35.1 µM.
With `Oc1c(CN2CCCCC2)cc(COCc2ccccc2)c2cccnc12` the figure was 85.6 µM; with `CCN1CCN(C(c2cccnc2)c2cc(Cl)c3cccnc3c2O)CC1` (stereo not given), 61.9 µM; with `O=c1[nH][nH]c(-c2ccccc2O)c1C(C[N+](=O)[O-])c1ccc(Br)cc1` (stereo not given), 66.5 µM.
On to `Oc1cccc(/C=N/NC(=S)Nc2cccnc2)c1O`, for which the IC50 was 28.7 µM.
Consider `C/C(=N\NC(=O)c1cc2ccccc2cc1O)c1ccccn1`, for which the IC50 was 31.9 µM.
On to `CCCCCCCCCCOC(=O)Cn1c(COc2ccccc2OC)[n+](C)c2ccccc21`, for which the IC50 is 37 µM.
With `CCN1/C(=C/C=C/C=C/c2sc3ccccc3[n+]2CC)Sc2ccccc21`, the IC50 is 23.6 µM.
In the case of `O=C(c1cccs1)c1no[n+]([O-])c1C(=O)c1cccs1`, the half-inhibitory concentration (IC50) is 13 µM.
Turning to `CC[C@H]1OC(=O)[C@H](C)[C@@H](O[C@H]2C[C@@](C)(OC)[C@@H](O)[C@H](C)O2)[C@H](C)[C@@H](O[C@@H]2O[C@H](C)C[C@H](N(C)C)[C@H]2O)[C@](C)(O)C[C@@H](C)[C@@H]2N[C@@H](COCCOC)O[C@H]([C@H]2C)[C@]1(C)O`, the half-maximal inhibitory concentration (IC50) is 22.6 µM.
Regarding `O=C(Cn1nc(CNc2ccc(Cl)cc2)[n+]2c1CCCCC2)c1ccc(Br)cc1`, the concentration for half-maximal inhibition (IC50) was 88.2 µM.
With `CC(C)(C)/C(O)=C/c1nc2cc(Cl)ccc2oc1=O` the figure was 55 µM.
Consider `C=CC1=C(C(=O)O)N2C(=O)[C@@H](NC(=O)/C(=N\O)c3csc(N)n3)[C@H]2SC1` (stereo in doubt), for which the IC50 was 33.8 µM.
`O=[N+]([O-])c1ccc(O)c(/C=N/Nc2ccccn2)c1`: the IC50 was 12.5 µM.
`COc1cc([N+](=O)[O-])cc(/C=N\NC(=O)C2COc3ccccc3O2)c1O` (stereo not given): the IC50 is 141 µM.
As for `CCc1ccc(CNc2ccc(O)cc2)cc1`, the IC50 is 94.9 µM.
With `CCCCOc1ccc(Cc2cnc(N)nc2N)cc1`, the half-maximal inhibitory concentration (IC50) was 81.3 µM.
For `CCCC(=O)NC(c1ccccc1)c1ccc2cccnc2c1O` (stereo not given), the IC50 was 32.1 µM.
With `Fc1ccc(CCNCc2ccc(Cl)c(Cl)c2)cc1` the figure was 109 µM.
With `CC(C)C(=O)NC(c1cccc([N+](=O)[O-])c1)c1ccc2cccnc2c1O` (stereo not given), the IC50 was 23.3 µM.
For the compound `Cc1ccc(C(c2cc(Cl)c3cccnc3c2O)N2CCN(C)CC2)cc1` (stereo not given), the IC50 is 41.1 µM.
In the case of `O=Nc1ccc(O)c2ncccc12`, the IC50 is 41.4 µM.
With `CCNC(=S)NNC(=O)c1ccccn1` the figure was 33.7 µM.
With `O=C1C=C(O)c2c(O)cc(O)c(O)c2C1=O` the figure was 69.4 µM.
For `O=[N+]([O-])c1cc(Cl)c(O)c2ncccc12`, the IC50 is 5.99 µM.
`O=[N+]([O-])c1cc(O)c2ncccc2c1`: the IC50 was 15.8 µM.
As for `CNc1cc(Cl)c2nonc2c1[N+](=O)[O-]`, the IC50 is 115 µM.
Regarding `CS(=O)(=O)c1ccc([C@@H](O)[C@@H](CO)NC(=O)C(Cl)Cl)cc1`, the IC50 is 63.7 µM.
Take `CCn1cc(C(=O)O)c(=O)c2cc(F)c(N3CCN(C(=S)Nc4ccccc4OC)CC3)cc21`: the IC50 is 22 µM.
In the case of `O=C(Nc1ccccc1)Oc1ccc[nH]c1=O`, the IC50 is 80.6 µM.
For the compound `Nc1ncn([C@@H]2O[C@H](CO)[C@@H](O)[C@H]2O)c(=O)n1`, the IC50 was 19.4 µM.
Take `CCN(CC)c1ccc(/C=N/Nc2nc3ccccc3[nH]2)c(O)c1`: the IC50 is 39.9 µM.
Turning to `COc1ccc2[nH]c3c(C)c4ccncc4c(C)c3c2c1`, the IC50 is 80.6 µM.
On to `Oc1ccc(Cl)cc1Cc1cc(Cl)ccc1O`, for which the IC50 is 57 µM.
With `CCCCCCCNC(=O)C1(CC2CC(c3cccc(Br)c3)=NO2)CCNCC1` (stereo not given) the figure was 58.7 µM.
As to `O=C1NC(=S)S/C1=C\C=C\c1ccc([N+](=O)[O-])o1`, the IC50 is 29.2 µM.
Take `NCC12CC3CC(C1)CC(c1ccc(Br)cc1)(C3)C2`: the IC50 was 55.2 µM.
For the compound `COc1c(N2CCNC(C)C2)c(F)cc2c(=O)c(C(=O)O)cn(C3CC3)c12` (stereo not given), the 50% inhibitory concentration (IC50) is 0.44 µM.
Take `Nc1cc(Cl)c2nonc2c1[N+](=O)[O-]`: the 50% inhibitory concentration (IC50) is 39.8 µM.
With `O=C1c2ccccc2C(=O)c2[nH]c(=O)[nH]c21` the figure was 6.53 µM; with `Cc1cc(C(=O)N/N=C/c2cc(Br)cc([N+](=O)[O-])c2O)c2ccccc2n1`, 93.5 µM.
In the case of `Cc1cc(/C=N/n2c(COc3ccccc3)nc3ccccc3c2=O)c(O)c([N+](=O)[O-])c1`, the half-inhibitory concentration (IC50) is 61.4 µM.
As for `Cc1cc(SCC(=O)N/N=C/c2ccc(O)c(O)c2O)c(C)cc1Br`, the IC50 is 22.8 µM.
With `CC(=O)NC(c1cccs1)c1cc([N+](=O)[O-])c2cccnc2c1O` (stereo not given) the figure was 35.5 µM.
Turning to `Nc1[nH]c(=O)ncc1F`, the IC50 is 10.6 µM.
Consider `CCCCCCCCCCOC(=O)Cn1c(COc2ccc(OC)cc2)[n+](C)c2ccccc21`, for which the IC50 is 36.5 µM and 36.1 µM.
As for `C#CCOCCOCCOCCNc1nc(N2CCN(C(=O)CCCCCCCCCCNC(=O)[C@H]([C@@H](C)CC)n3cc(CCCCN=C(N)N)nn3)CC2)nc(N2CCN(C(=O)CCCCCCCCCCNC(=O)[C@H](CCCN=C(N)N)n3cc(C[C@@H](C)CC)nn3)CC2)n1`, the IC50 was 30.6 µM.
With `CCOC(=O)C1=Nc2ccccc2C1=[N+]=[N-]`, the IC50 was 50 µM.
Turning to `C/C(=C\C(=O)OCCCCCCCCC(=O)O)C[C@@H]1OC[C@H](C[C@@H]2O[C@H]2[C@@H](C)[C@H](C)O)[C@@H](O)[C@H]1O`, the half-maximal inhibitory concentration (IC50) is 14.1 µM.
With `Oc1ccccc1NCC(O)Cn1ccc2ccccc21` (stereo not given), the half-maximal inhibitory concentration (IC50) was 130 µM.
Regarding `CCCCCCCCCn1c2c(c(=N)c3c1CCC3)CCC2`, the IC50 was 84.5 µM.
Turning to `CO[C@H]1/C=C/O[C@@]2(C)Oc3c(C)c(O)c4c(O)c(c(C=NN5CCN(C)CC5)c(O)c4c3C2=O)NC(=O)/C(C)=C\C=C\[C@H](C)[C@H](O)[C@@H](C)[C@@H](O)[C@@H](C)[C@H](OC(C)=O)[C@@H]1C`, the IC50 was 10.3 µM.
